Earlier results, collected in US20120251462A1, “Agent For Smoker Dehabituation” (Cognis IP Management GmbH, priority 2011, published 2012).

Test system: nACh receptors
Settings: exceeds affinity of nicotine

In the case of `Clc1ccc(C2CC3CCC2N3)cn1` (stereo not shown) [Epibatidin], the “affinity for nACh receptors relative to nicotine” value is given as 120 fold.
